Columns and labels:
[1] = system: ChiPSC4-derived hepatocytes; test: CYP activity assay, Example 4, basic protocol B; conditions: single compounds 0.2-5 μM or combinations, from day 21 onwards, Collagen I-Fibronectin-based coating, day 29, FIG. 2 A-D
Method: (§1) On day 29 and 36 of the differentiation protocol, the cell cultures are subjected to a CYP activity assay according to the following protocol: Cells are washed twice with warm Williams's medium E w/o phenol red (+0.1% PEST). Then CYP activity assay, consisting of warm Williams medium E w/o phenol red (+0.1% PEST), 2 mM L-Glutamine, 25 mM HEPES, 10 μM Phenacetin (model substrate for CYP1A), 10 μM Bupropion (model substrate for 2B6), 10 μM Diclofenac (model substrate for CYP2C9), 10 μM Bufuralol (model substrate for 2D6), and 5 μM Midazolam (model substrate for CYP3A), is added to the cells (e.g. 110 μl/cm^2) and incubated for 16 hr at 37° C. Then 100 μl of the supernatant is transferred into a 96 well plate which is sealed with a tight seal tape and stored at −80° C. until LC/MS-analysis of metabolite formation: Acetaminophen (Paracetamol) for CYP1A, OH-Bupropion for CYP2B6, OH-Diclofenac for CYP2C9, OH-Bufuralol for CYP2D6, and OH-Midazolam for CYP3A. […]
On day 29 of the differentiation protocol, the cell cultures are subjected to a CYP activity assay according to the protocol described in Example 3. In some experiments, 50 μM Mephenytoin (model substrate for 2C19) was included additionally to the substrates mentioned above and then the formation of the metabolite OH-Mephenytoin was measured by LC/MS in order to determine CYP2C19 activity.

[2] = system: hiPS cell-derived hepatocytes; test: CYP activity assay (LC/MS metabolite formation), Example 3, basic protocol A; conditions: single compounds, 0.2-50 μM, from day 21 onwards, Fibronectin-based coating, day 29 and 36, FIG. 1
Method: Following the basic protocol A, hiPS cell derived hepatocytes cultured on a Fibronectin-based coating were treated with 0.5 or 5 μM 10Z-Heptadecenoic acid, 0.5 or 5 μM Arachidonic acid, 5 μM Calcifediol, 5 μM Calcitriol, 0.2 or 0.5 μM Cholecalciferol, 5 or 50 μM CGP 52608, 0.5 or 5 μM Docosahexaenoic acid, 0.5, 1.25, 2.5, 5, or 10 μM PP1, 0.5 or 5 μM PP2, 0.5 or 5 μM D-erythro-Sphingosine, or 0.5 or 5 μM Tetradecanoic acid from day 21 of the differentiation protocol and onwards (FIG. 1).
as §1, with “C.” for “C. Then 100 μl of the supernatant is transferred into a 96 well plate which is sealed with a tight seal tape and stored at −80° C. until LC/MS-analysis of metabolite formation: Acetaminophen (Paracetamol) for CYP1A, OH-Bupropion for CYP2B6, OH-Diclofenac for CYP2C9, OH-Bufuralol for CYP2D6, and OH-Midazolam for CYP3A.”

OATP1B1 = OATP1B1 mRNA expression levels; assay type: cell-based, human; conditions: protocol B plus compound compared to protocol A; day 36; protocol B alone also increases; FIG. 2 F
Method: Following the basic protocol B, ChiPSC4-derived hepatocytes cultured on a Collagen I-Fibronectin-based coating were treated with 0.5 μM 10Z-Heptadecenoic acid, 0.5 μM Arachidonic acid, 0.5 μM Calcitriol, 5 μM CGP 52608, 0.2 μM Cholecalciferol, 5 μM PP1, 0.5 μM D-erythro-Sphingosine, 0.2 μM 13 cis-RA, 0.5 μM L-erythro MAPP, 0.5 μM PAF C16, 0.5 μM C16 Ceramide, or different combinations of these compounds from day 21 of the differentiation protocol and onwards (FIG. 2).

SMILES | CYP activity levels [1] | CYP activity levels [2] | OATP1B1 mRNA levels (OATP1B1)
C=C1CC[C@H](O)C/C1=C/C=C1\CCC[C@]2(C)[C@@H]([C@H](C)CCCC(C)C)CC[C@@H]12 [Cholecalciferol, cholecalciferol] | increase CYP activity levels | increase CYP activity levels | –
CCCCCC/C=C\CCCCCCCCC(=O)O [10Z-Heptadecenoic acid, 10Z-heptadecenoic acid] | – | – | increase
CC(C)(C)n1nc(-c2ccc(Cl)cc2)c2c(N)ncnc21 [PP2, 3-(4-chlorophenyl) 1-(1,1-dimethylethyl)-1H-pyrazolo[3,4-d]pyrimidin-4-amine] | – | increase CYP activity levels | –
CC1=C(/C=C/C(C)=C/C=C/C(C)=C\C(=O)O)C(C)(C)CCC1 [13 cis-RA, 13-cis-retinoic acid] | increase CYP activity levels | – | –

— patent publication US10913932B2, “Maturation of mammalian hepatocytes” (Takara Bio Europe AB, priority 2015, dated 2021)
